Tests used:
newborn Swiss mice = assay: Experiment I: carcinogenicity in newborn mice, benz(a)anthracene vs its K region epoxide (s.c. injection, tumour incidence to 70-75 weeks)
Description: Br. J. Cancer (1975) 31, 182 THE CARCINOGENICITY OF POLYCYCLIC HYDROCARBON EPOXIDES IN NEWBORN MICE P. L. GROVER, P. SIMS, B. C. V. MITCHLEY AND F. J. C. ROE From the Chester Beatty Research Institute, Institute of Cancer Research, Royal Cancer Hospital, Fulham Road, London, SW3 6JB Received 9 August 1974. […] THE HYPOTHESIS that the carcino- genicity of polycyclic hydrocarbons is associated with the formation of epoxide metabolites (Grover, Hewer and Sims, 1971, 1972; Keysell et al., 1973) is sup- ported by some experimental evidence but remains unproven. […] The epoxides can also act as alkylating agents (Grover and Sims, 1970) and as mutagens (Ames, Sims and Grover, 1972; Huberman et al., 1971; Cookson, Sims and Grover, 1971; Fahmy and Fahmy, 1973). […] The newborn mouse, which is susceptible to carcinogenic polycyclic hydrocarbons (Roe, Rowson and Salaman, 1961; Roe, Mitchley and Walters, 1963; Walters and Roe, 1964, 1966) can be considered as a convenient source of several types of rapidly dividing cells. Consequently we have tested the K region epoxides derived from phenanthrene, benz(a)anthracene, 7-methylbenz(a)anthracene, dibenz(a,h)- anthracene, chrysene and 3-methylchol- anthrene, together with some of the CARCINOGENICITY OF POLYCYCLIC HYDROCARBON EPOXIDES IN MICE 183 parent hydrocarbons, for carcinogenicity using newborn mice. This paper presents the results that were obtained in these experiments. MATERIALS AND METHODS The polycyclic hydrocarbon epoxides, phenanthrene 9,10-oxide, benz(a)anthracene 5,6-oxide, 7-methylbenz(a)anthracene 5,6- oxide, dibenz(a,h)anthracene 5,6-oxide, chry- sene 5,6-oxide and 3-methylcholanthrene 11,12-oxide were prepared from the parent hydrocarbons (Newman and Blum, 1964; Boyland and Sims, 1965; Sims 1966). Two experiments were undertaken fol- lowing similar protocols. For each experi- ment Swiss mice from a specific pathogen- free colony were time mated so as to produce a large number of litters over the course of 2 or 3 days. […] Test compounds were suspended in poly- ethylene glycol (PEG) 400 and injections of 0-02 ml of the suspension were given by introducing a 25 gauge hypodermic needle through the skin near the root of the tail and threading it subcutaneously to deliver the injected material in the interscapular region. Injections were given to every mouse on the first day or first 3 days of life. The details of treatments and numbers of mice of each sex in each group are shown in Table I (Experiment I) and Table II (Ex- periment II). Surviving mice were weaned when they w ere 21 days old. Thereafter, males and females w ere separated and housed 6 per cage in metal boxes. A mixture of sawdust and wood shavings was used as bedding. The mice were fed on a standard cubed diet (Formulation 86 from C. Holdman and Sons (Plow co Feeds), Byers Lane, South Godstone, Surrey) and water was given ad libitum. Mice were inspected daily, and at weekly intervals they were weighed and palpated for tumours and other lesions. […] The experiment was terminated when surviving mice were between 70 and 75 weeks old. A full routine post- mortem examination, which included disten- sion of the urinary bladder with fixative, was carried out. The number of lesions thought to be neoplasms and the size of the largest such lesion in each organ affected were recorded. All tissues with suspected neoplasms were fixed in Bouin's solution. Haematoxylin and eosin stained 5 µm paraffin wax sections were prepared and examined microscopically. RESULTS The results of the two experiments in terms of tumour incidence are sum- marized in […].

newborn mice = details: ref Roe and Walters, 1967; cited from earlier work
[1] = females, 50 µg per treatment s.c. on Days 0, 1 and 2
[2] = females, 50 µg per treatment s.c. on Days 0, 1 and 2 in PEG 400
[3] = females, 100 µg per treatment s.c. on Days 0, 1 and 2
[4] = females, 100 µg per treatment s.c. on Days 0, 1 and 2 in PEG 400
[5] = females, 200 µg per treatment s.c. on Days 0, 1 and 2
[6] = females, 200 µg per treatment s.c. on Days 0, 1 and 2 in PEG 400
[7] = males, 50 µg per treatment s.c. on Days 0, 1 and 2
[8] = males, 50 µg per treatment s.c. on Days 0, 1 and 2 in PEG 400
[9] = males, 100 µg per treatment s.c. on Days 0, 1 and 2
[10] = males, 100 µg per treatment s.c. on Days 0, 1 and 2 in PEG 400
[11] = males, 200 µg per treatment s.c. on Days 0, 1 and 2
[12] = males, 200 µg per treatment s.c. on Days 0, 1 and 2 in PEG 400

c1ccc2c(c1)-c1cc3ccccc3cc1[C@H]1O[C@@H]21 [Benz(a)anthracene 5,6-oxide, benz(a)anthracene 5,6-oxide]
incidence of liver tumours in males (newborn Swiss mice; 2 higher levels (Groups D and E, 3 x 200 and 3 x 100 µg)): increase in incidence | No. of mice examined at p.m. at termination of experiment (70th-75th week) with liver tumours (newborn Swiss mice; [1]): 0 | No. of mice examined at p.m. at termination of experiment (70th-75th week) with lung tumours (newborn Swiss mice; [1]): 2 | No. of mice examined at p.m. at termination of experiment (70th-75th week) with multiple liver tumours (newborn Swiss mice; [1]): 0 | No. of mice examined at p.m. at termination of experiment (70th-75th week) with multiple lung tumours (newborn Swiss mice; [1]): 0 | No. of mice examined at p.m. at termination of experiment (70th-75th week) with other tumours (newborn Swiss mice; [1]): 2 | No. of mice examined at p.m. from 50th-70th week with liver tumours (newborn Swiss mice; [1]): 0 | No. of mice examined at p.m. from 50th-70th week with lung tumours (newborn Swiss mice; [1]): 0 | No. of mice examined at p.m. from 50th-70th week with other tumours (newborn Swiss mice; [1]): 1 | No. of survivors at 50 weeks (newborn Swiss mice; [2]): 18 | No. of survivors at 70 weeks (newborn Swiss mice; [2]): 16 | No. of mice examined at p.m. at termination of experiment (70th-75th week) with liver tumours (newborn Swiss mice; [3]): 0 | No. of mice examined at p.m. at termination of experiment (70th-75th week) with lung tumours (newborn Swiss mice; [3]): 6 | No. of mice examined at p.m. at termination of experiment (70th-75th week) with multiple liver tumours (newborn Swiss mice; [3]): 0 | No. of mice examined at p.m. at termination of experiment (70th-75th week) with multiple lung tumours (newborn Swiss mice; [3]): 5 | No. of mice examined at p.m. at termination of experiment (70th-75th week) with other tumours (newborn Swiss mice; [3]): 1 | No. of mice examined at p.m. from 50th-70th week with liver tumours (newborn Swiss mice; [3]): 0 | No. of mice examined at p.m. from 50th-70th week with lung tumours (newborn Swiss mice; [3]): 0 | No. of mice examined at p.m. from 50th-70th week with other tumours (newborn Swiss mice; [3]): 0 | No. of survivors at 50 weeks (newborn Swiss mice; [4]): 24 | No. of survivors at 70 weeks (newborn Swiss mice; [4]): 22 | No. of mice examined at p.m. at termination of experiment (70th-75th week) with liver tumours (newborn Swiss mice; [5]): 2 | No. of mice examined at p.m. at termination of experiment (70th-75th week) with lung tumours (newborn Swiss mice; [5]): 1 | No. of mice examined at p.m. at termination of experiment (70th-75th week) with multiple liver tumours (newborn Swiss mice; [5]): 0 | No. of mice examined at p.m. at termination of experiment (70th-75th week) with multiple lung tumours (newborn Swiss mice; [5]): 0 | No. of mice examined at p.m. at termination of experiment (70th-75th week) with other tumours (newborn Swiss mice; [5]): 0 | No. of mice examined at p.m. from 50th-70th week with liver tumours (newborn Swiss mice; [5]): 0 | No. of mice examined at p.m. from 50th-70th week with lung tumours (newborn Swiss mice; [5]): 0 | No. of mice examined at p.m. from 50th-70th week with other tumours (newborn Swiss mice; [5]): 0 | No. of survivors at 50 weeks (newborn Swiss mice; [6]): 21 | No. of survivors at 70 weeks (newborn Swiss mice; [6]): 20 | incidence of the 2 kinds of tumour (liver, lung) compared with vehicle group (newborn Swiss mice; lowest level of dosage, Group F, 3 x 50 µg): not very different from that in Group G | No. of mice examined at p.m. at termination of experiment (70th-75th week) with liver tumours (newborn Swiss mice; [7]): 4 | No. of mice examined at p.m. at termination of experiment (70th-75th week) with lung tumours (newborn Swiss mice; [7]): 5 | No. of mice examined at p.m. at termination of experiment (70th-75th week) with multiple liver tumours (newborn Swiss mice; [7]): 1 | No. of mice examined at p.m. at termination of experiment (70th-75th week) with multiple lung tumours (newborn Swiss mice; [7]): 1 | No. of mice examined at p.m. at termination of experiment (70th-75th week) with other tumours (newborn Swiss mice; [7]): 0 | No. of mice examined at p.m. from 50th-70th week with liver tumours (newborn Swiss mice; [7]): 0 | No. of mice examined at p.m. from 50th-70th week with lung tumours (newborn Swiss mice; [7]): 0 | No. of mice examined at p.m. from 50th-70th week with other tumours (newborn Swiss mice; [7]): 0 | No. of survivors at 50 weeks (newborn Swiss mice; [8]): 16 | No. of survivors at 70 weeks (newborn Swiss mice; [8]): 16 | No. of mice examined at p.m. at termination of experiment (70th-75th week) with liver tumours (newborn Swiss mice; [9]): 12 | No. of mice examined at p.m. at termination of experiment (70th-75th week) with lung tumours (newborn Swiss mice; [9]): 3 | No. of mice examined at p.m. at termination of experiment (70th-75th week) with multiple liver tumours (newborn Swiss mice; [9]): 8 | No. of mice examined at p.m. at termination of experiment (70th-75th week) with multiple lung tumours (newborn Swiss mice; [9]): 0 | No. of mice examined at p.m. at termination of experiment (70th-75th week) with other tumours (newborn Swiss mice; [9]): 0 | No. of mice examined at p.m. from 50th-70th week with liver tumours (newborn Swiss mice; [9]): 0 | No. of mice examined at p.m. from 50th-70th week with lung tumours (newborn Swiss mice; [9]): 1 | No. of mice examined at p.m. from 50th-70th week with other tumours (newborn Swiss mice; [9]): 0 | No. of survivors at 50 weeks (newborn Swiss mice; [10]): 27 | No. of survivors at 70 weeks (newborn Swiss mice; [10]): 26 | No. of mice examined at p.m. at termination of experiment (70th-75th week) with liver tumours (newborn Swiss mice; [11]): 5 | No. of mice examined at p.m. at termination of experiment (70th-75th week) with lung tumours (newborn Swiss mice; [11]): 2 | No. of mice examined at p.m. at termination of experiment (70th-75th week) with multiple liver tumours (newborn Swiss mice; [11]): 4 | No. of mice examined at p.m. at termination of experiment (70th-75th week) with multiple lung tumours (newborn Swiss mice; [11]): 1 | No. of mice examined at p.m. at termination of experiment (70th-75th week) with other tumours (newborn Swiss mice; [11]): 2 | No. of mice examined at p.m. from 50th-70th week with liver tumours (newborn Swiss mice; [11]): 2 | No. of mice examined at p.m. from 50th-70th week with lung tumours (newborn Swiss mice; [11]): 0 | No. of mice examined at p.m. from 50th-70th week with other tumours (newborn Swiss mice; [11]): 0 | No. of survivors at 50 weeks (newborn Swiss mice; [12]): 21 | No. of survivors at 70 weeks (newborn Swiss mice; [12]): 18 | activity in increasing liver and lung tumour incidence compared with parent compound (newborn Swiss mice; parenteral administration during early neonatal life): less active than its parent compound

c1ccc2c(c1)ccc1ccccc12 [phenanthrene]
activity in newborn mice (newborn mice): inactive
